Test results published in ChEMBL document CHEMBL5346923, “Novel pyridinium cationic pleuromutilin analogues overcoming bacterial multidrug resistance” (Eur J Med Chem, 2023).
Calls of active or inactive are those of the source. The calls are words filed in the database; no cut-off is given here.

How the values were obtained:
Staphylococcus aureus [1] = assay: Antibacterial activity against multi-drug resistant Staphylococcus aureus sa1 infected in BABL/C mouse assessed as reduction in bacterial load in lungs at 20 mg/kg, ip measured after 2 days; format: functional; conditions: time 2 day
Staphylococcus aureus [2] = assay: Antibacterial activity against compound-resistant/methicillin-resistant Staphylococcus aureus assessed as inhibition of bacterial growth; format: functional
Klebsiella pneumoniae [3] = assay: Antibacterial activity against clinical isolate Klebsiella pneumoniae harbouring blaKpc gene assessed as inhibition of bacterial growth measured after 24 hrs by MH broth based assay; format: functional
Staphylococcus aureus [4] = assay: Antibacterial activity against methicillin-resistant Staphylococcus aureus ATCC 43300 assessed as reduction in log10 CFU at 3 times of MIC measured after 8 hrs by time-kill assay; format: functional
[5] = test system: Streptococcus hyovaginalis; assay: Antibacterial activity against clinical isolate Streptococcus hyovaginalis harbouring ErmB and tetO gene assessed as inhibition of bacterial growth measured after 24 hrs by MH broth based assay; format: functional
[6] = Toxicity in po dosed BABL/C mouse assessed as lethal dose measured upto 14 days; format: organism-based; conditions: in vivo, time < 14 day
Streptococcus pneumoniae [7] = assay: Antibacterial activity against clinical isolate Streptococcus pneumoniae harbouring ermB gene assessed as inhibition of bacterial growth measured after 24 hrs by MH broth based assay; format: functional
Escherichia coli [8] = assay: Antibacterial activity against clinical isolate Escherichia coli harbouring NDM-17 gene assessed as inhibition of bacterial growth measured after 24 hrs by MH broth based assay; format: functional
Staphylococcus aureus [9] = assay: Antibacterial activity against methicillin-resistant Staphylococcus aureus ATCC 43300 assessed as reduction in log10 CFU at 6 times of MIC measured after 8 hrs by time-kill assay; format: functional
Streptococcus pneumoniae [10] = assay: Antibacterial activity against Streptococcus pneumoniae ATCC 49619 assessed as inhibition of bacterial growth measured after 24 hrs by MH broth based assay; format: functional
Staphylococcus aureus [11] = assay: Antibacterial activity against 2 times of MIC treated methicillin-resistant Staphylococcus aureus […] assessed as post-antibiotic sub-MIC effect by measuring time required for increase in log10 CFU/ml of bacteria at 0.25 to 0.5 times of MIC incubated for 1 hr by MH broth based assay; format: functional
Bacillus subtilis = assay: Antibacterial activity against Bacillus subtilis ATCC 6633 assessed as inhibition of bacterial growth measured after 24 hrs by MH broth based assay; format: functional
Escherichia coli [12] = assay: Antibacterial activity against Escherichia coli MG1655 assessed as inhibition of bacterial growth measured after 24 hrs by MH broth based assay; format: functional
Staphylococcus aureus [13] = assay: Antibacterial activity against Staphylococcus aureus ATCC 29213 assessed as induction of bacterial fragmentation at 1 times of MIC by SEM analysis; format: functional, organism-based
Staphylococcus aureus [14] = assay: Antibacterial activity against clinical isolate Staphylococcus aureus harbouring cfr and erm C gene assessed as inhibition of bacterial growth measured after 24 hrs by MH broth based assay; format: functional
Staphylococcus aureus [15] = assay: Antibacterial activity against methicillin-resistant Staphylococcus aureus ATCC 43300 assessed as inhibition of bacterial growth measured after 24 hrs by MH broth based assay; format: functional
Enterococcus lactis = assay: Antibacterial activity against clinical isolate Enterococcus lactis assessed as inhibition of bacterial growth measured after 24 hrs by MH broth based assay; format: functional
Staphylococcus aureus [16] = assay: Antibacterial activity against methicillin-resistant Staphylococcus aureus infected in rabbit RBC assessed as reduction in haemolysis by measuring haemoglobin level at 0.25 to 1 times of MIC by absorbance based analysis; format: functional, organism-based; conditions: Erythrocyte
Staphylococcus aureus [17] = assay: Antibacterial activity against clinical isolate Staphylococcus aureus harbouring erm C gene assessed as inhibition of bacterial growth measured after 24 hrs by MH broth based assay; format: functional
[18] = test system: Staphylococcus epidermidis; assay: Antibacterial activity against methicillin-resistant Staphylococcus epidermidis ATCC 51625 assessed as inhibition of bacterial growth measured after 24 hrs by MH broth based assay; format: functional
Escherichia coli [19] = assay: Antibacterial activity against Escherichia coli MG1655 harbouring acrB gene assessed as inhibition of bacterial growth measured after 24 hrs by MH broth based assay; format: functional
Streptococcus suis = assay: Antibacterial activity against clinical isolate Streptococcus suis harbouring IsaE and ErmA gene assessed as inhibition of bacterial growth measured after 24 hrs by MH broth based assay; format: functional
Cell membrane [20] = assay: Disruption of membrane integrity in Staphylococcus aureus ATCC 29213 at 1 to 6 times of MIC by DAPI/propidium iodide staining based fluorescence microscopic analysis; format: subcellular
Staphylococcus aureus [21] = assay: Antibacterial activity against clinical isolate Staphylococcus aureus harbouring IsaA, cfr and erm A gene assessed as inhibition of bacterial growth measured after 24 hrs by MH broth based assay; format: functional
Staphylococcus aureus [22] = assay: Antibacterial activity against tiamulin-resistant/methicillin-resistant Staphylococcus aureus assessed as inhibition of bacterial growth; format: functional
Staphylococcus aureus [23] = assay: Antibacterial activity against clinical isolate multi-drug resistant Staphylococcus aureus sal assessed as inhibition of bacterial growth; format: functional
Cell membrane [24] = assay: Disruption of membrane integrity in Staphylococcus aureus ATCC 29213 assessed as induction of cell membrane perforation at 1 to 4 ug/ml incubated for 60 mins by ONPG reagent based analysis; format: subcellular; conditions: dose 1-4 µg/ml
Staphylococcus aureus [25] = assay: Antibacterial activity against clinical isolate Staphylococcus aureus harbouring IsaE gene assessed as inhibition of bacterial growth measured after 24 hrs by MH broth based assay; format: functional
Staphylococcus aureus [26] = assay: Antibacterial activity against clinical isolate Staphylococcus aureus harbouring cfr gene assessed as inhibition of bacterial growth measured after 24 hrs by MH broth based assay; format: functional
Klebsiella pneumoniae [27] = assay: Antibacterial activity against clinical isolate Klebsiella pneumoniae harbouring mcr-8 gene assessed as inhibition of bacterial growth measured after 24 hrs by MH broth based assay; format: functional
Staphylococcus aureus [28] = assay: Antibacterial activity against methicillin-resistant Staphylococcus aureus assessed as resistance development by measuring fold increase in MIC measured after 24 days; format: functional; conditions: time 24 day
Staphylococcus aureus [29] = assay: Antibacterial activity against multi-drug resistant Staphylococcus aureus sa1 infected in BABL/C mouse assessed as reduction in bacterial load in lungs at 40 mg/kg, ip measured after 2 days; format: functional; conditions: time 2 day
Staphylococcus aureus [30] = assay: Antibacterial activity against Staphylococcus aureus ATCC 29213 assessed as inhibition of bacterial GFP expression at 1 to 4 times of MIC incubated for 1 hr by fluorescence microscopic analysis; format: functional, organism-based
Staphylococcus aureus [31] = assay: Antibacterial activity against Staphylococcus aureus ATCC 29213 assessed as inhibition of bacterial division at 4 times of MIC by SEM analysis; format: functional, organism-based
Staphylococcus aureus [32] = assay: Antibacterial activity against methicillin-resistant Staphylococcus aureus […] assessed as post antibacterial effect by measuring time required for increase in log10 CFU/ml of bacteria at 2 times of MIC incubated for 1 hr by MH broth based assay; format: functional
Staphylococcus aureus [33] = assay: Antibacterial activity against clinical isolate multi-drug resistant Staphylococcus aureus sal assessed as reduction in log10 CFU at 1 times of MIC measured after 8 hrs by time-kill assay; format: functional, organism-based
Klebsiella pneumoniae [34] = assay: Antibacterial activity against Klebsiella pneumonia CMCC (B) 46117 assessed as inhibition of bacterial growth measured after 24 hrs by MH broth based assay; format: functional
Staphylococcus aureus [35] = assay: Antibacterial activity against multi-drug resistant Staphylococcus aureus sa1 infected in BABL/C mouse assessed as survival rate at 10 mg/kg, ip measured upto 7 days; format: functional; conditions: sa1, 168 h, time <= 7 day
Staphylococcus aureus [36] = assay: Antibacterial activity against Staphylococcus aureus ATCC 29213 assessed as induction of cell membrane perforation at 4 times of MIC by SEM analysis; format: functional, organism-based

Question: What does the source list for C=C[C@]1(C)C[C@@H](OC(=O)CSc2cc[n+](CCCCCCC)cc2)[C@]2(C)[C@H](C)CC[C@]3(CCC(=O)[C@H]32)[C@@H](C)[C@@H]1O.[I-]?
Answer: Activity (Staphylococcus aureus [1]): 3.29 log10CFU/ml; MIC (Staphylococcus aureus [2]): 0.5 µg/mL; MIC (Klebsiella pneumoniae [3]): 4 µg/mL; Activity (Staphylococcus aureus [4]): 2 log10CFU/ml; MIC [5]: 32 µg/mL; LD50 at 336 h [6]: 879 mg/kg; MIC (Streptococcus pneumoniae [7]): 0.5 µg/mL; MIC (Escherichia coli [8]): 16 µg/mL; Activity (Staphylococcus aureus [9]): 2 log10CFU/ml; MIC (Streptococcus pneumoniae [10]): < 0.031 µg/mL; Time (Staphylococcus aureus [11]): 2.62 h; MIC (Bacillus subtilis): 4 µg/mL; MIC (Escherichia coli [12]): 32 µg/mL; Activity (Staphylococcus aureus [13]): Active; MIC (Staphylococcus aureus [14]): 8 µg/mL; MIC (Staphylococcus aureus [15]): 0.063 µg/mL; MIC (Enterococcus lactis): 32 µg/mL; Activity (Staphylococcus aureus [16]): Active; MIC (Staphylococcus aureus [17]): 2 µg/mL; MIC [18]: 0.063 µg/mL; MIC (Escherichia coli [19]): 0.5 µg/mL; MIC (Streptococcus suis): 16 µg/mL; Activity (Cell membrane [20]): Active; MIC (Staphylococcus aureus [21]): 4 µg/mL; MIC (Staphylococcus aureus [22]): 0.5 µg/mL; MIC (Staphylococcus aureus [23]): 8 µg/mL; Activity (Cell membrane [24]): Active; MIC (Staphylococcus aureus [25]): 8 µg/mL; MIC (Staphylococcus aureus [26]): 8 µg/mL; MIC (Klebsiella pneumoniae [27]): 2 µg/mL; fold change (FC) (Staphylococcus aureus [28]): 8; Activity (Staphylococcus aureus [29]): 4.17 log10CFU/ml; Activity (Staphylococcus aureus [30]): Active; Activity (Staphylococcus aureus [31]): Active; Time (Staphylococcus aureus [32]): 2.31 h; Activity (Staphylococcus aureus [33]): Active; MIC (Klebsiella pneumoniae [34]): 2 µg/mL; survival at 10 mg/kg (Staphylococcus aureus [35]): 66%; Activity (Staphylococcus aureus [36]): Active
